# Measured values from patent US20090221518A1, “Compositions and Methods for Treatment of Exudative Serous Effusion” (Anaborex, Inc., priority 2007, published 2009).
# Marks after values point to notes of the source that are not given here.
# Assays:
# lung cancer = lung cancer patients; cited from earlier work
# [1] = test system: Yoshida AH-130 ascites hepatoma (AH) cells; test: AH cell count and viability in recovered ascites fluid, rat AH model; format: in vivo, female Wistar rats
# Method: Following the method of Busquets et al., female Wistar rats were inoculated (Day 0) intraperitoneally (ip) with 2×10^7 cells/animal of Yoshida AH-130 ascites hepatoma (AH) cells. Control animals were inoculated with an equivalent amount of sterile saline solution. […] The roxithromycin dosing solution was 2 mg/mL in 20 mM citrate, pH of 5.5, and 4.5% mannitol in water.
# For the cell count measurements in ascites, the cells were counted directly from the ascites collected at necropsy from N 4 animals in […]. A […] aliquot was taken from each sample and diluted 1:500 with trypan blue. The sample was then placed onto a hemacytometer and both sides counted to determine the total number of viable and non-viable AH cells.
# In Experiment 2, the single treatment group received 50 mg/kg roxithromycin (ip). Ascites volumes, serum albumin concentrations, and CRP levels in dissected gastrocnemius muscle were determined. AH cell counts and cell viability (%) were determined in recovered ascites fluid.
# [2] = macrolide given to rats prior to carrageenan stimulation; cited from earlier work
# C-reactive protein (CRP) [3] = test: C-reactive protein in gastrocnemius muscle lysate (Quantikine Rat CRP Immunoassay Kit), rat AH model; format: in vivo, female Wistar rats; conditions: Experiment 2, 50 mg/kg ip
# Method: Following the method of Busquets et al., female Wistar rats were inoculated (Day 0) intraperitoneally (ip) with 2×10^7 cells/animal of Yoshida AH-130 ascites hepatoma (AH) cells. Control animals were inoculated with an equivalent amount of sterile saline solution. […] The roxithromycin dosing solution was 2 mg/mL in 20 mM citrate, pH of 5.5, and 4.5% mannitol in water. Serum samples were collected prior to sacrifice on D5 and assayed for serum albumin concentration. After determination of gastrocnemius muscle wet weight, some gastrocnemius samples were lysed and determinations made of C-reactive protein (CRP, using Quantikine Rat CRP Immunoassay Kit) and total protein. A commercial immunoassay kit (Quantikine Rat VEGF Immunoassay, R & D Systems PN RRV00) was used to determine Vascular Endothelial Growth Factor (VEGF) concentration in plasma and ascites. Similarly, CRP concentration in plasma and ascites was determined using a commercial kit (Rat High-Sensitive CRP ELISA Method, Kamiya Biochemical PN KT099). In Experiment 2, the single treatment group received 50 mg/kg roxithromycin (ip). Ascites volumes, serum albumin concentrations, and CRP levels in dissected gastrocnemius muscle were determined. AH cell counts and cell viability (%) were determined in recovered ascites fluid.
# [4] = test system: Yoshida AH-130 ascites hepatoma (AH) cells; test: Ascites volume in rat AH (Yoshida AH-130 ascites hepatoma) model; format: in vivo, female Wistar rats; conditions: for Ascites (mL) Mean: AH-inoculated rats
# Method: Following the method of Busquets et al., female Wistar rats were inoculated (Day 0) intraperitoneally (ip) with 2×10^7 cells/animal of Yoshida AH-130 ascites hepatoma (AH) cells. Control animals were inoculated with an equivalent amount of sterile saline solution. […] The roxithromycin dosing solution was 2 mg/mL in 20 mM citrate, pH of 5.5, and 4.5% mannitol in water. The animals were sacrificed on Day 5. Upon sacrifice ascites fluid was withdrawn by syringe and the volume determined. Three different experiments were performed. In each experiment one control group received an ascites hepatoma (AH) inoculation with vehicle treatment, and a second control group received saline inoculation with vehicle treatment. In Experiment 1, the single treatment group received 5 mg/kg roxithromycin (ip). Ascites volumes were determined. In Experiment 2, the single treatment group received 50 mg/kg roxithromycin (ip). Ascites volumes, serum albumin concentrations, and CRP levels in dissected gastrocnemius muscle were determined. AH cell counts and cell viability (%) were determined in recovered ascites fluid. In Experiment 3, one treatment group received 40 mg/kg (ip) roxithromycin, and a second treatment group received 40 mg/kg (po). Ascites volumes, plasma CRP and VEGF concentrations, and ascites CRP and VEGF concentrations were determined.
# serum albumin = test: Serum albumin concentration, rat AH model; format: in vivo, female Wistar rats; conditions: Experiment 2; 50 mg/kg ip
# Method: Following the method of Busquets et al., female Wistar rats were inoculated (Day 0) intraperitoneally (ip) with 2×10^7 cells/animal of Yoshida AH-130 ascites hepatoma (AH) cells. Control animals were inoculated with an equivalent amount of sterile saline solution. […] The roxithromycin dosing solution was 2 mg/mL in 20 mM citrate, pH of 5.5, and 4.5% mannitol in water. […] In Experiment 2, the single treatment group received 50 mg/kg roxithromycin (ip). Ascites volumes, serum albumin concentrations, and CRP levels in dissected gastrocnemius muscle were determined. AH cell counts and cell viability (%) were determined in recovered ascites fluid.
# C-reactive protein (CRP) [5] = test: CRP concentration in plasma and ascites (Rat High-Sensitive CRP ELISA), rat AH model; format: in vivo, female Wistar rats; conditions: Experiment 3; for Ascites [CRP] Mean: ascites fluid; for Ascites CRP ng/rat Mean: concentration times ascites volume; for Plasma [CRP] Mean: AH-inoculated
# Method: (§1) Following the method of Busquets et al., female Wistar rats were inoculated (Day 0) intraperitoneally (ip) with 2×10^7 cells/animal of Yoshida AH-130 ascites hepatoma (AH) cells. Control animals were inoculated with an equivalent amount of sterile saline solution. […] The roxithromycin dosing solution was 2 mg/mL in 20 mM citrate, pH of 5.5, and 4.5% mannitol in water. Serum samples were collected prior to sacrifice on D5 and assayed for serum albumin concentration. After determination of gastrocnemius muscle wet weight, some gastrocnemius samples were lysed and determinations made of C-reactive protein (CRP, using Quantikine Rat CRP Immunoassay Kit) and total protein. A commercial immunoassay kit (Quantikine Rat VEGF Immunoassay, R & D Systems PN RRV00) was used to determine Vascular Endothelial Growth Factor (VEGF) concentration in plasma and ascites. Similarly, CRP concentration in plasma and ascites was determined using a commercial kit (Rat High-Sensitive CRP ELISA Method, Kamiya Biochemical PN KT099). In Experiment 3, one treatment group received 40 mg/kg (ip) roxithromycin, and a second treatment group received 40 mg/kg (po). Ascites volumes, plasma CRP and VEGF concentrations, and ascites CRP and VEGF concentrations were determined.
# [6] = test system: Vascular Endothelial Growth Factor (VEGF); test: VEGF concentration in plasma and ascites (Quantikine Rat VEGF Immunoassay), rat AH model; format: in vivo, female Wistar rats; conditions: Experiment 3; for Ascites [VEGF] Mean: ascites fluid; for Ascites VEGF pg/rat Mean: concentration times ascites volume
# Method: as §1
# [7] = Experiment 2, ascites, AH-inoculated, 50 mg/kg ip, N = 4
smiles,measurement,setting,value
CC[C@H]1OC(=O)[C@H](C)[C@@H](O[C@H]2C[C@@](C)(OC)[C@@H](O)[C@H](C)O2)[C@H](C)[C@@H](O[C@@H]2O[C@H](C)C[C@H](N(C)C)[C@H]2O)[C@](C)(OC)C[C@@H](C)C(=O)[C@H](C)[C@@H](O)[C@]1(C)O [clarithromycin],IL6 levels,lung cancer,reduced
same,Median survival time,lung cancer,significantly increased
CC[C@H]1OC(=O)[C@H](C)[C@@H](O[C@H]2C[C@@](C)(OC)[C@@H](O)[C@H](C)O2)[C@H](C)[C@@H](O[C@@H]2O[C@H](C)C[C@H](N(C)C)[C@H]2O)[C@](C)(O)C[C@@H](C)/C(=N\OCOCCOC)[C@H](C)[C@@H](O)[C@]1(C)O [roxithromycin],AH cell densities or cell counts versus vehicle control,"[1]; Experiment 2, 50 mg/kg ip",did not reduce
same,Viable Cells % Mean,"[1]; Experiment 2, ascites AH cells, trypan blue, 50 mg/kg ip, N = 4",99%
same,Cells/mL × 10^6 Mean,[1]; [7],338 Cells/mL × 10^6
same,Total Cells # × 10^6 Mean,[1]; [7],"2,077 × 10^6"
same,Cytostatic or cytotoxic activity toward ascites hepatoma cells,"[1]; rat AH model, conclusion from cell counts and viability",does not appear to be cytostatic or cytotoxic
same,Exudate accumulation in rat paws,[2],limit exudate accumulation
same,Muscle CRP levels versus AH-inoculated vehicle animals,C-reactive protein (CRP) [3],did significantly reduce
same,Muscle CRP Mean,"C-reactive protein (CRP) [3]; gastrocnemius muscle, AH-inoculated rats",28.5 ng/mg total protein
same,Accumulated ascites fluid versus vehicle control,"[4]; Experiment 1, 5 mg/kg (ip), difference not statistically significant",lowered the accumulated ascites fluid
same,Ascites (mL) Mean,"[4]; Experiment 1, 5 mg/kg ip qd from Day 1, sacrifice Day 5",3.48** mL
same,Accumulated ascites volume versus vehicle control,"[4]; Experiment 2, 50 mg/kg ip",very significantly reduced
same,Ascites (mL) Mean,"[4]; Experiment 2, 50 mg/kg ip qd, Day 5",2.92 mL
same,Accumulated ascites volume versus vehicle control,"[4]; Experiment 3, 40 mg/kg given either po or ip",very significantly reduced
same,Ascites (mL) Mean,"[4]; Experiment 3, 40 mg/kg i.p. qd, Day 5",3.0 mL
same,Ascites (mL) Mean,"[4]; Experiment 3, 40 mg/kg oral, bid, Day 5",3.7 mL
same,Serum albumin levels versus AH-inoculated vehicle animals,serum albumin,did not significantly change
same,Total CRP per rat in ascites versus vehicle control,C-reactive protein (CRP) [5]; 40 mg/kg given either orally or intraperitoneally,statistically significantly reduced
same,Plasma CRP concentration versus vehicle-treated animals,C-reactive protein (CRP) [5]; 40 mg/kg ip,"lowered plasma CRP concentration compared with the vehicle-treated animals, but the differences were not statistically significant"
same,Plasma CRP concentration versus vehicle-treated animals,C-reactive protein (CRP) [5]; 40 mg/kg oral,very significantly lowered
same,Ascites [CRP] Mean,C-reactive protein (CRP) [5]; 40 mg/kg i.p. qd (Group 9),230 ng/mL
same,Ascites [CRP] Mean,"C-reactive protein (CRP) [5]; 40 mg/kg oral, bid (Group 10)",287 ng/mL
same,Ascites CRP ng/rat Mean,C-reactive protein (CRP) [5]; 40 mg/kg i.p. qd (Group 9),530 ng/rat
same,Ascites CRP ng/rat Mean,"C-reactive protein (CRP) [5]; 40 mg/kg oral, bid (Group 10)",730 ng/rat
same,Plasma [CRP] Mean,C-reactive protein (CRP) [5]; 40 mg/kg i.p. qd,709 µg/mL
same,Plasma [CRP] Mean,"C-reactive protein (CRP) [5]; 40 mg/kg oral, bid",593 µg/mL
same,Ascites [VEGF] Mean,[6]; 40 mg/kg i.p. qd (Group 9),"4,590 pg/mL"
same,Ascites [VEGF] Mean,"[6]; 40 mg/kg oral, bid (Group 10)","4,040 pg/mL"
same,Ascites VEGF pg/rat Mean,[6]; 40 mg/kg i.p. qd (Group 9),"10,200 pg/rat"
same,Ascites VEGF pg/rat Mean,"[6]; 40 mg/kg oral, bid (Group 10)","9,900 pg/rat"
same,Plasma VEGF concentration,"[6]; plasma, 40 mg/kg ip qd or oral bid",below the immunoassay method quantitation limit
same,Influence on VEGF levels,[6]; rat AH model,does not influence VEGF levels
